Results published in PubChem BioAssay AID272 (DTP/NCI, 2004).
Values joined by “and” are separate entries in the source; they are usually repeats but may differ in a detail not shown here. Identical values can stand only once. Results filed as inconclusive are left out.

System: Lewis lung carcinoma i.m., BDF1 mice, T/C %
Test: NCI In Vivo Anticancer Drug Screen. Data for tumor model Lewis Lung Carcinoma (intramuscular) in B6D2F1 (BDF1) mice
Method in brief: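 Mice carrying transplantable tumours received test compound. Survival or tumour size was recorded and expressed as the treated-group value (T) divided by the vehicle-treated control-group value (C).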

[1] = endpoint: median survival time, dose: 100.0 mg/kg/injection, schedule: Q01DX011 (ip), vehicle: saline, higher = longer survival

CC(C)n1c2c([n+](C)c1/C=C/c1ccccc1)C(=O)c1ccccc1C2=O
T/C (endpoint: mean tumor weight (est.), dose: 1.0 mg/kg/injection, schedule: Q01DX011 (ip), vehicle: saline with Tween-80, higher = larger tumour): 43 % of control

CC(=O)NNC(=O)c1ccccn1
T/C (endpoint: median survival time, dose: 8.0 mg/kg/injection, schedule: Q01DX Z (ip), vehicle: other, higher = longer survival): 86 % of control | T/C (endpoint: median survival time, dose: 16.0 mg/kg/injection, schedule: Q01DX Z (ip), vehicle: other, higher = longer survival): 86 % of control | T/C (endpoint: median survival time, dose: 32.0 mg/kg/injection, schedule: Q01DX Z (ip), vehicle: other, higher = longer survival): 86 % of control | T/C (endpoint: median survival time, dose: 64.0 mg/kg/injection, schedule: Q01DX Z (ip), vehicle: other, higher = longer survival): 91 % of control

Cc1c2c(cc3c1[nH]c1ccccc13)C(c1ccc(Cl)cc1)=NCC2
T/C (endpoint: mean tumor weight (est.), dose: 75.0 mg/kg/injection, schedule: Q01DX011 (ip), vehicle: saline with Tween-80, higher = larger tumour): 54 % of control | T/C (endpoint: mean tumor weight (est.), dose: 150.0 mg/kg/injection, schedule: Q01DX011 (ip), vehicle: saline with Tween-80, higher = larger tumour): 41 % of control | T/C (endpoint: mean tumor weight (est.), dose: 300.0 mg/kg/injection, schedule: Q01DX011 (ip), vehicle: saline with Tween-80, higher = larger tumour): 40 % of control | T/C (endpoint: median survival time, dose: 75.0 mg/kg/injection, schedule: Q01DX011 (ip), vehicle: saline with Tween-80, higher = longer survival): 100 % of control | T/C (endpoint: median survival time, dose: 150.0 mg/kg/injection, schedule: Q01DX011 (ip), vehicle: saline with Tween-80, higher = longer survival): 92 % of control | T/C (endpoint: median survival time, dose: 300.0 mg/kg/injection, schedule: Q01DX011 (ip), vehicle: saline with Tween-80, higher = longer survival): 111 % of control

C[C@]12C=CC(=O)C=C1CC[C@@H]1[C@@H]2C(=O)C[C@@]2(C)[C@H]1CC[C@]2(O)C(=O)CO
T/C (endpoint: mean tumor weight, dose: 23.0 mg/kg/injection, schedule: Q01DX009 (ip), vehicle: water, higher = larger tumour): 70 % of control | T/C (endpoint: mean tumor weight, dose: 25.0 mg/kg/injection, schedule: Q01DX011 (ip), vehicle: saline, higher = larger tumour): 45 % of control | T/C (endpoint: mean tumor weight, dose: 39.0 mg/kg/injection, schedule: Q01DX009 (ip), vehicle: water, higher = larger tumour): 50 % of control | T/C (endpoint: mean tumor weight, dose: 50.0 mg/kg/injection, schedule: Q01DX011 (ip), vehicle: saline, higher = larger tumour): 36 % of control | T/C (endpoint: mean tumor weight, dose: 100.0 mg/kg/injection, schedule: Q01DX011 (ip), vehicle: saline, higher = larger tumour): 17 % of control | T/C (endpoint: mean tumor weight, dose: 200.0 mg/kg/injection, schedule: Q01DX011 (ip), vehicle: saline, higher = larger tumour): 5 % of control | T/C (endpoint: median survival time, dose: 23.0 mg/kg/injection, schedule: Q01DX009 (ip), vehicle: none, higher = longer survival): 109 % of control | T/C (endpoint: median survival time, dose: 23.0 mg/kg/injection, schedule: Q01DX009 (ip), vehicle: water, higher = longer survival): 106 % of control | T/C (endpoint: median survival time, dose: 25.0 mg/kg/injection, schedule: Q01DX011 (ip), vehicle: carboxymethylcellulose (CMC), higher = longer survival): 106 % of control and 113 % of control | T/C (endpoint: median survival time, dose: 25.0 mg/kg/injection, schedule: Q01DX011 (ip), vehicle: saline, higher = longer survival): 112 % of control | T/C (endpoint: median survival time, dose: 25.0 mg/kg/injection, schedule: Q01DX011 (ip), vehicle: water, higher = longer survival): 110 % of control | T/C (endpoint: median survival time, dose: 39.0 mg/kg/injection, schedule: Q01DX009 (ip), vehicle: none, higher = longer survival): 104 % of control | T/C (endpoint: median survival time, dose: 39.0 mg/kg/injection, schedule: Q01DX009 (ip), vehicle: water, higher = longer survival): 90 % of control | T/C (endpoint: median survival time, dose: 50.0 mg/kg/injection, schedule: Q01DX011 (ip), vehicle: carboxymethylcellulose (CMC), higher = longer survival): 115 % of control and 121 % of control | T/C (endpoint: median survival time, dose: 50.0 mg/kg/injection, schedule: Q01DX011 (ip), vehicle: saline, higher = longer survival): 104 % of control | T/C (endpoint: median survival time, dose: 50.0 mg/kg/injection, schedule: Q01DX011 (ip), vehicle: water, higher = longer survival): 108 % of control | T/C (endpoint: median survival time, dose: 52.0 mg/kg/injection, schedule: Q01DX007 (sc), vehicle: saline, higher = longer survival): 118 % of control and 119 % of control | T/C (endpoint: median survival time, dose: 65.0 mg/kg/injection, schedule: Q01DX009 (ip), vehicle: none, higher = longer survival): 95 % of control | T/C (endpoint: median survival time, dose: 86.0 mg/kg/injection, schedule: Q01DX007 (sc), vehicle: saline, higher = longer survival): 95 % of control and 113 % of control | T/C [1]: 102 % of control | T/C (endpoint: median survival time, dose: 100.0 mg/kg/injection, schedule: Q01DX011 (ip), vehicle: water, higher = longer survival): 94 % of control | T/C (endpoint: median survival time, dose: 108.0 mg/kg/injection, schedule: Q01DX009 (ip), vehicle: none, higher = longer survival): 46 % of control | T/C (endpoint: median survival time, dose: 144.0 mg/kg/injection, schedule: Q01DX007 (sc), vehicle: saline, higher = longer survival): 105 % of control | T/C (endpoint: median survival time, dose: 180.0 mg/kg/injection, schedule: Q01DX009 (ip), vehicle: none, higher = longer survival): 42 % of control | T/C (endpoint: median survival time, dose: 240.0 mg/kg/injection, schedule: Q01DX007 (sc), vehicle: saline, higher = longer survival): 68 % of control

CC1=C2C(=CC(C)(C)[C@@H]2O)C(=O)[C@](C)(O)C12CC2
T/C (endpoint: mean tumor weight, dose: 0.1 mg/kg/injection, schedule: Q01DX011 (ip), vehicle: other, higher = larger tumour): 95 % of control | T/C (endpoint: mean tumor weight, dose: 0.2 mg/kg/injection, schedule: Q01DX011 (ip), vehicle: other, higher = larger tumour): 84 % of control | T/C (endpoint: mean tumor weight, dose: 0.4 mg/kg/injection, schedule: Q01DX011 (ip), vehicle: other, higher = larger tumour): 21 % of control

O=NN(CCCl)C(=O)NCc1ccc(-c2ccc(CNC(=O)N(CCCl)N=O)cc2)cc1
T/C (endpoint: median survival time, dose: 108.0 mg/kg/injection, schedule: Q07DX003 (ip), vehicle: Klucel (hydroxypropylcellulose) (HPC), higher = longer survival): 104 % of control | T/C (endpoint: median survival time, dose: 180.0 mg/kg/injection, schedule: Q07DX003 (ip), vehicle: Klucel (hydroxypropylcellulose) (HPC), higher = longer survival): 93 % of control

Clc1ncnc2nc[nH]c12
T/C (endpoint: mean tumor weight (est.), dose: 6.25 mg/kg/injection, schedule: Q01DX011 (ip), vehicle: other, higher = larger tumour): 76 % of control | T/C (endpoint: mean tumor weight (est.), dose: 12.5 mg/kg/injection, schedule: Q01DX011 (ip), vehicle: other, higher = larger tumour): 91 % of control | T/C (endpoint: mean tumor weight (est.), dose: 25.0 mg/kg/injection, schedule: Q01DX011 (ip), vehicle: other, higher = larger tumour): 105 % of control | T/C (endpoint: mean tumor weight (est.), dose: 50.0 mg/kg/injection, schedule: Q01DX011 (ip), vehicle: other, higher = larger tumour): 89 % of control | T/C (endpoint: mean tumor weight (est.), dose: 100.0 mg/kg/injection, schedule: Q01DX011 (ip), vehicle: other, higher = larger tumour): 74 % of control | T/C (endpoint: mean tumor weight, dose: 3.13 mg/kg/injection, schedule: Q01DX011 (ip), vehicle: other, higher = larger tumour): 119 % of control | T/C (endpoint: mean tumor weight, dose: 6.25 mg/kg/injection, schedule: Q01DX011 (ip), vehicle: other, higher = larger tumour): 103 % of control | T/C (endpoint: mean tumor weight, dose: 12.5 mg/kg/injection, schedule: Q01DX011 (ip), vehicle: other, higher = larger tumour): 98 % of control | T/C (endpoint: mean tumor weight, dose: 25.0 mg/kg/injection, schedule: Q01DX011 (ip), vehicle: other, higher = larger tumour): 50 % of control | T/C (endpoint: mean tumor weight, dose: 50.0 mg/kg/injection, schedule: Q01DX011 (ip), vehicle: other, higher = larger tumour): 73 % of control | T/C (endpoint: median survival time, dose: 3.13 mg/kg/injection, schedule: Q01DX011 (ip), vehicle: other, higher = longer survival): 96 % of control and 110 % of control | T/C (endpoint: median survival time, dose: 25.0 mg/kg/injection, schedule: Q01DX011 (ip), vehicle: other, higher = longer survival): 96 % of control | T/C (endpoint: median survival time, dose: 50.0 mg/kg/injection, schedule: Q01DX011 (ip), vehicle: other, higher = longer survival): 100 % of control and 116 % of control | T/C (endpoint: median survival time, dose: 100.0 mg/kg/injection, schedule: Q01DX011 (ip), vehicle: other, higher = longer survival): 88 % of control

CCN(CC)CCCC(C)Nc1c2ccccc2nc2c(Cl)cccc12 (stereo not drawn)
T/C (endpoint: mean tumor weight (est.), dose: 7.5 mg/kg/injection, schedule: Q01DX011 (ip), vehicle: saline, higher = larger tumour): 81 % of control | T/C (endpoint: mean tumor weight (est.), dose: 15.0 mg/kg/injection, schedule: Q01DX011 (ip), vehicle: saline, higher = larger tumour): 96 % of control | T/C (endpoint: mean tumor weight (est.), dose: 30.0 mg/kg/injection, schedule: Q01DX011 (ip), vehicle: saline, higher = larger tumour): 95 % of control

OCN(CO)c1nc(N(CO)CO)nc(N(CO)CO)n1
T/C (endpoint: mean tumor weight (est.), dose: 25.0 mg/kg/injection, schedule: Q01DX011 (ip), vehicle: saline with Tween-80, higher = larger tumour): 112 % of control | T/C (endpoint: mean tumor weight (est.), dose: 50.0 mg/kg/injection, schedule: Q01DX011 (ip), vehicle: saline with Tween-80, higher = larger tumour): 85 % of control | T/C (endpoint: mean tumor weight (est.), dose: 100.0 mg/kg/injection, schedule: Q01DX011 (ip), vehicle: saline with Tween-80, higher = larger tumour): 116 % of control | T/C (endpoint: mean tumor weight (est.), dose: 200.0 mg/kg/injection, schedule: Q01DX011 (ip), vehicle: saline with Tween-80, higher = larger tumour): 120 % of control | T/C (endpoint: mean tumor weight (est.), dose: 400.0 mg/kg/injection, schedule: Q01DX011 (ip), vehicle: saline with Tween-80, higher = larger tumour): 73 % of control

CCN(CC)CCOC(=O)c1ccccc1N(c1ccccc1)c1ccccc1
T/C (endpoint: mean tumor weight (est.), dose: 62.5 mg/kg/injection, schedule: Q01DX011 (ip), vehicle: Klucel (hydroxypropylcellulose) (HPC), higher = larger tumour): 67 % of control | T/C (endpoint: mean tumor weight (est.), dose: 125.0 mg/kg/injection, schedule: Q01DX011 (ip), vehicle: Klucel (hydroxypropylcellulose) (HPC), higher = larger tumour): 59 % of control | T/C (endpoint: median survival time, dose: 62.5 mg/kg/injection, schedule: Q01DX011 (ip), vehicle: Klucel (hydroxypropylcellulose) (HPC), higher = longer survival): 98 % of control

C=C(C(=O)OC1CC2CCC(C1)N2C)c1ccccc1 (stereo not drawn)
T/C (endpoint: median survival time, dose: 7.5 mg/kg/injection, schedule: Q01DX011 (ip), vehicle: saline, higher = longer survival): 119 % of control

FC(F)c1nc2nc(Cl)c(Cl)nc2[nH]1
T/C (endpoint: median survival time, dose: 4.0 mg/kg/injection, schedule: Q01DX011 (ip), vehicle: saline, higher = longer survival): 92 % of control | T/C (endpoint: median survival time, dose: 64.0 mg/kg/injection, schedule: Q01DX011 (ip), vehicle: saline, higher = longer survival): 96 % of control

CS(=O)(=O)OCC(O)C(O)COS(C)(=O)=O (stereo not drawn)
T/C [1]: 100 % of control | T/C (endpoint: median survival time, dose: 400.0 mg/kg/injection, schedule: Q01DX011 (ip), vehicle: saline, higher = longer survival): 100 % of control

CCCCCCCCCCCCCCCC(=O)N(C/C=C/CN(CCCN(C)C)C(=O)CCCCCCCCCCCCCCC)CCCN(C)C
T/C (endpoint: mean tumor weight (est.), dose: 12.5 mg/kg/injection, schedule: Q01DX011 (ip), vehicle: saline with Tween-80, higher = larger tumour): 44 % of control | T/C (endpoint: median survival time, dose: 12.5 mg/kg/injection, schedule: Q01DX011 (ip), vehicle: saline with Tween-80, higher = longer survival): 92 % of control
